Here are results for three compounds from patent US20230025807A1 (priority 2019, published 2023).

What is called IC50 is the point on the concentration scale where inhibition reaches its midpoint. A lower IC50 goes with inhibition by little substance.

In the test the target is T1, Human CD38 (Homo sapiens, UniProt P28907).
T1 construct: purchased BPS Bioscience 79287
T1 sequence (P28907 1-300): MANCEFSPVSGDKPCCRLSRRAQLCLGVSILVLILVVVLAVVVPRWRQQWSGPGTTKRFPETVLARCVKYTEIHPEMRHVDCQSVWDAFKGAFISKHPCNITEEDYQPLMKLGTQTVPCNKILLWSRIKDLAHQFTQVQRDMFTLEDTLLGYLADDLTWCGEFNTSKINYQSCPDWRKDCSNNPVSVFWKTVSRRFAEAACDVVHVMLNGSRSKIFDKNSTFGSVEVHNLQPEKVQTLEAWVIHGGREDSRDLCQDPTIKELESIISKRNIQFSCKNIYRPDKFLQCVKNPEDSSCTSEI
Put plainly: biochemical. The procedure: CD38 hydrolase buffer (4×) was thawed on ice and 1×CD38 hydrolase buffer was prepared by diluting 4×CD38 hydrolase buffer with water. CD38 hydrolase enzyme was diluted to […] with 1×CD38 hydrolase buffer (10 ng/well). Master mix was prepared by mixing equal volumes of water and CD38 hydrolase buffer (4×) and 10 μl of the mix was added to all the wells. Following master mix addition, 10 μl of the inhibitors and 20 μl of CD38 hydrolase enzyme were added to the wells. For wells designated blank, 10 μl and 20 μl of 1×CD38 hydrolase buffer was added respectively in place of CD38 enzyme and inhibitors. The plate was covered and incubated 30 min at room temperature with slow shaking at 400 rpm. After 30 min incubation, the plate was removed and 10 μl of diluted ε-NAD substrate was added to all the wells. The plate is incubated for 10 min, spun at 1200 rpm for 30 secs to remove bubbles and read in Tecan Spark using a fluorometer setting of excitation 300 nm and emission 410 nm. The reading for the blank was subtracted from all the values. IC50 for the test compounds were determined by using Graphpad prism software v7.0.
`COCC(C)(C)NC(=O)c1cc(-c2cncs2)cc2[nH]ccc12` [Example 42, N-(1-methoxy-2-methylpropan-2-yl)-6-(thiazol-5-yl)-1H-indole-4-carboxamide] returned an IC50 of 3.6 µM. That is a single-digit micromolar value.
`COCCO[C@H]1CC[C@H](NC(=O)c2cc(-c3cncs3)cc3c2ccn3CC(C)(C)O)CC1` [Example 53, 1-(2-hydroxy-2-methylpropyl)-N-((1r,4r)-4-(2-methoxyethoxy)cyclohexyl)-6-(thiazol-5-yl)-1H-indole-4-carboxamide]: the IC50 came to 3 µM.
In turn, `COCCO[C@H]1CC[C@H](NC(=O)c2cc(-c3cncs3)cc3[nH]ccc23)C1` (racemic) [Example 34, N-(Trans-3-(2-methoxyethoxy)cyclopentyl)-6-(thiazol-5-yl)-1H-indole-4-carboxamide] registered an IC50 of 0.265 µM. Compared with the last compound, the IC50 is about 11-fold lower.
